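Exposure lasted 48 hours, with cells grown in 96-well plates and compounds tested at five concentrations. At the GI50, growth is halved.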 The source made the active and inactive calls. Cut-off read from the data, not from the text of the source: active = GI50 up to about 1.1 µM and inactive = higher.
Experiments:
Assay in all cases: NCI-60 cell line screen, 48 h
786-0 = test system: 786-0
A549 = test system: A549
CAKI-1 = test system: CAKI-1
HCC 2998 = test system: HCC 2998
HCT-116 = test system: HCT-116
HOP-92 = test system: HOP-92
IGROV-1 = test system: IGROV-1
M14 = test system: M14
NCI-H226 = test system: NCI-H226
OVCAR-4 = test system: OVCAR-4
RPMI-8226 = test system: RPMI-8226
RXF 393 = test system: RXF 393
SK-MEL-5 = test system: SK-MEL-5
SNB-75 = test system: SNB-75
TK-10 = test system: TK-10
U-251 = test system: U-251
UO-31 = test system: UO-31
NCI/ADR-RES = test system: NCI/ADR-RES

Row | SMILES | GI50 (786-0) | GI50 (A549) | GI50 (CAKI-1) | GI50 (HCC 2998) | GI50 (HCT-116) | GI50 (HOP-92) | GI50 (IGROV-1) | GI50 (M14) | GI50 (NCI-H226) | GI50 (OVCAR-4) | GI50 (RPMI-8226) | GI50 (RXF 393) | GI50 (SK-MEL-5) | GI50 (SNB-75) | GI50 (TK-10) | GI50 (U-251) | GI50 (UO-31) | GI50 (NCI/ADR-RES)
1 | COc1cc([C@@H]2c3cc4c(cc3[C@@H](NC(=O)c3ccccc3)C3COC(=O)[C@@H]32)OCO4)cc(OC)c1O (stereo not given in full) | 4.26 µM (inactive) | 1.04 µM (active) | 11.3 µM (inactive) | 14 µM (inactive) | 5.42 µM (inactive) | 8.39 µM (inactive) | 1.65 µM (inactive) | 5.57 µM (inactive) | 1.53 µM (inactive) | 39.7 µM (inactive) | 2.61 µM (inactive) | 7.31 µM (inactive) | 2.31 µM (inactive) | 5.43 µM (inactive) | 32.4 µM (inactive) | 1.32 µM (inactive) | 4.89 µM (inactive) | –
2 | O=C(c1ccccc1)C(c1ccccc1)C1(O)C(=O)Nc2c(Cl)cc(Cl)cc21 (stereo not given) | 14.7 µM (inactive) | 18.9 µM (inactive) | 17.4 µM (inactive) | 16.3 µM (inactive) | – | 18.9 µM (inactive) | – | 17.9 µM (inactive) | 16.7 µM (inactive) | 13.7 µM (inactive) | 8.34 µM (inactive) | 19.1 µM (inactive) | 15.8 µM (inactive) | 15.3 µM (inactive) | 18.3 µM (inactive) | 26.2 µM (inactive) | 18.9 µM (inactive) | –
3 | CC1(C)OCC(C2OC(OC(=O)c3ccc(C(F)(F)F)cc3)C3OC(C)(C)OC23)O1 (stereo not given) | 46.5 µM (inactive) | > 77.4 µM (inactive) | > 77.4 µM (inactive) | > 77.4 µM (inactive) | > 77.4 µM (inactive) | – | > 77.4 µM (inactive) | > 77.4 µM (inactive) | > 77.4 µM (inactive) | > 77.4 µM (inactive) | 44.4 µM (inactive) | 28 µM (inactive) | 74.5 µM (inactive) | 40.2 µM (inactive) | > 77.4 µM (inactive) | 57.8 µM (inactive) | 19 µM (inactive) | 62.1 µM (inactive)
4 | O.O=C([O-])c1ccccc1Nc1ccccc1C(=O)[O-].[Zn+2] | 24.1 µM (inactive) | 47.1 µM (inactive) | 5.08 µM (inactive) | > 100 µM (inactive) | 38.4 µM (inactive) | 18.7 µM (inactive) | 13.3 µM (inactive) | 35.1 µM (inactive) | 31 µM (inactive) | 19.8 µM (inactive) | 48 µM (inactive) | 20.6 µM (inactive) | 25.5 µM (inactive) | 18.3 µM (inactive) | 95.1 µM (inactive) | 18.7 µM (inactive) | > 44.7 µM (inactive) | –
5 | Cc1ccc(C(=O)O)cc1NC(=O)c1cc(/C=C/c2ccccc2)[nH]c(=S)n1 | > 64.3 µM (inactive) | > 65.8 µM (inactive) | > 100 µM (inactive) | > 100 µM (inactive) | > 37.8 µM (inactive) | > 100 µM (inactive) | > 100 µM (inactive) | > 100 µM (inactive) | > 100 µM (inactive) | > 100 µM (inactive) | > 44.1 µM (inactive) | > 100 µM (inactive) | > 100 µM (inactive) | > 100 µM (inactive) | > 100 µM (inactive) | > 100 µM (inactive) | > 100 µM (inactive) | –
6 | Cc1oc2c(C)c3oc(=O)cc(C)c3cc2c1CNC(=O)[C@@H]1OCCOCCOCCOCCOCCOC1C(=O)O (stereo not given in full) | 21.2 µM (inactive) | > 100 µM (inactive) | > 100 µM (inactive) | > 100 µM (inactive) | > 100 µM (inactive) | > 100 µM (inactive) | > 100 µM (inactive) | 12.5 µM (inactive) | > 100 µM (inactive) | > 100 µM (inactive) | > 100 µM (inactive) | > 100 µM (inactive) | > 100 µM (inactive) | > 100 µM (inactive) | > 100 µM (inactive) | > 100 µM (inactive) | > 100 µM (inactive) | –
